For experiment [1], the target named is wt HIV-1 RT-associated RNase H activity (Human immunodeficiency virus type 1 group M subtype B, UniProt P03366). Put plainly: biochemical. The class given is biochemical.
Experiment [2] deals with wt HIV-1 RT-associated RDDP activity (Human immunodeficiency virus type 1 group M subtype B, UniProt P03366). In words: biochemical.
A further experiment concerns the target K103N RT RNase H (Human immunodeficiency virus type 1 group M subtype B, UniProt P03366, K702N). In words: biochemical. The arrangement: species or system HIV-1.
The target in a further experiment is K103N RT RDDP (Human immunodeficiency virus type 1 group M subtype B, UniProt P03366, K702N). In words: biochemical. More on the design: species or system HIV-1.
Another experiment has as its target Y181C RT RNase H (Human immunodeficiency virus type 1 group M subtype B, UniProt P03366, Y780C). Put plainly: RNase H polymerase-independent cleavage assay, Y181C RT. Format: biochemical, HIV-1.
For a further experiment, the target named is Y181C RT RDDP (Human immunodeficiency virus type 1 group M subtype B, UniProt P03366, Y780C). In words: biochemical. More on the design: species or system HIV-1.
The target in experiment [3] is isolated HIV RNase H domain (p15) (Human immunodeficiency virus type 1 group M subtype B, UniProt P03366). Put plainly: Quenching of intrinsic fluorescence of the isolated RNase H domain. The class given is binding, HIV-1.

This note sets out measurements from article PMC3682423 (The FEBS journal, 2011).

By IC50 is commonly meant the midpoint of a concentration-inhibition curve. Read a low IC50 as greater potency in that assay.

For `O=C1c2ccccc2C(=O)c2c1ccc(O)c2O` [Alizarine, alizarine], the IC50 was greater than 100 µM in experiment [1]; 79 ± 8 µM in experiment [2]; greater than 100 µM on K103N RT RNase H; 68 ± 5 µM at K103N RT RDDP; greater than 100 µM at Y181C RT RNase H; greater than 100 µM on Y181C RT RDDP. Moreover, the “inhibition of wt RT-associated RNase H function (in words)” value in experiment [1] (wt RT) is “inactive”.
For the compound `O=C1Cc2ccccc2C(=O)N1O` [2-hydroxy-1,2,3,4-tetrahydroisoquinoline-1,3-dione], in experiment [3], the 50% inhibitory concentration (IC50) turned out to be 52 µM.
